Data from US20180136216A1, “Biomarkers for a Combination Therapy Comprising Lenvatinib and Everolimus” (EISAI R&D MANAGEMENT CO., LTD., priority 2015, published 2018).

Tested on: metastatic renal cell carcinoma (RCC)
Assay: Phase 2 study (NCT01136733) of lenvatinib, everolimus or the combination; baseline serum Ang2 versus OS and PFS
Assay type: in vivo, human
Protocol: Purpose: A Phase 2 study for lenvatinib was performed in patients with metastatic renal cell carcinoma (RCC) following a VEGF-targeted therapy. The importance of angiogenesis in RCC highlights the need to understand clinical mechanisms of escape from anti-angiogenic therapy, such as everolimus. This clinical biomarker analysis was conducted to identify predictive markers of clinical benefit in RCC patients upon the combination therapy with lenvatinib and everolimus compared to everolimus monotherapy.
The purpose of this analysis was to measure Ang2 level in blood samples, such as serum, obtained from patients in clinical trials at both pre- and post-treatment with lenvatinib, everolimus or the combination thereof, and to identify blood biomarkers which can be used to predict whether patients will need the combination therapy.
Materials and Methods: Patients having metastatic renal cell carcinoma after a prior VEGF-targeted therapy received lenvatinib mesylate (“lenvatinib”), everolimus, or the combination thereof until disease progression or development of unmanageable toxicities. Patients received lenvatinib at a dose of 24 mg (as lenvatinib free base; the same shall apply hereinafter) oral once daily, everolimus at a dose of 10 mg oral once daily, or lenvatinib at 18 mg and everolimus at 5 mg oral once daily. 153 patients were treated and evaluated for efficacy and molecular correlative analysis. This study was a part of a Phase 2 multicenter study of lenvatinib (NCT01136733). Pre- and post-treatment serum samples were collected for biomarker analysis. Serum samples were collected on Cycle 1 Day 1 (pre-treatment), Cycle 2 Day 15, and Day 1 of every cycle from Cycle 2, and at off-treatment. Each Cycle consisted of 4 weeks (28 days). Ang2 detection enzyme immunoassay kit (EIDIA Co., Ltd.) was used for the quantification of serum Ang2 level. The association between the concentration at Cycle 1 Day 1 (“baseline level”) of Ang2 and clinical outcomes, such as progression free survival (PFS) and overall survival (OS), was assessed. PFS is defined as the time from the date of randomization to the date of first documentation of disease progression or death, whichever occurs first. PFS was based on investigator review data using RECIST 1.1. OS is defined as the time from randomization until death from any cause. “Randomization” means randomization of a patient into a test group or a control group when therapy plan for a patient is determined.

[1] = low baseline Ang2 (≤3760 pg/ml)

## CO[C@H]1C[C@@H]2CC[C@@H](C)[C@@](O)(O2)C(=O)C(=O)N2CCCC[C@H]2C(=O)O[C@H]([C@H](C)C[C@@H]2CC[C@@H](OCCO)[C@H](OC)C2)CC(=O)[C@H](C)/C=C(\C)[C@@H](O)[C@@H](OC)C(=O)[C@H](C)C[C@H](C)/C=C/C=C/C=C/1C [everolimus, (1R,9S,12S,15R,16E,18R,19R,21R,23S,24E,26E,28E,30S,32S,35R)-1,18-dihydroxy-12-{(1R)-2-[(1S,3R,4R)-4-(2-hydroxyethoxy)-3-methoxycyclohexyl]-1-methylethyl}-19,30-dimethoxy-15,17,21,23,29,35-hexamethyl-11,36-dioxa-4-aza-tricyclo[30.3.1.0^4,9]hexatriaconta-16,24,26,28-tetraene-2,3,10,14,20-pentaone]
High baseline Ang2 (>3760 pg/ml)
  median PFS: 5.5 months
High baseline Ang2 (>3760 pg/ml, 33rd percentile cut-off)
  median OS: 12.2 months
Higher baseline Ang2, 25th percentile cut-off (3565 pg/ml)
  median OS: 12.2 months
Higher baseline Ang2, 70th percentile cut-off (5650 pg/ml)
  median OS: 12.2 months
[1]
  median OS: not reached
  median PFS: 5.6 months
